Laboratory results from paper PMC8942850, “Boron clusters as broadband membrane carriers” (Nature, 2022).

Columns and labels:
HeLa cells [1] = assay: Flow cytometry of total TAMRA-R8 uptake; format: cell-based; details: for mean_of_medians: Extended Data Fig.5a, mean of n = 3
Procedure: HeLa cells were seeded at 10,000 cells per well in 96-well plates. The next day, they were incubated for 1 h with the indicated compounds diluted in HKR. Cells were subsequently washed for 5 min with HKR containing 0.1 mg ml^−1 heparin, washed again with HKR and trypsinized. Trypsin was neutralized with PBS containing 2% FBS and 5 mM EDTA. TAMRA fluorescence was excited with a green laser (532 nm) and measured on a Guava easyCyte BG HT collecting the emission at 620/52 nm (Orange-G channel) and using InCyte v.3.2 (GuavaSoft, Millipore). Data were analysed with R (v.4.0.3)[54] and the packages CytoExploreR (v.1.0.8)[56] and ggcyto (v.1.18.0)[57] Cells with typical FSC and SSC parameters were selected and the median fluorescence intensity calculated for each sample. Each condition was measured in triplicate.
Cells were incubated with 1 µM peptide, in the absence or presence of 10 µM cluster for 1 h. […] After medium removal and solubilization with DMSO, the absorbance at 570 nm was measured. Values were normalized to the untreated cell control (100%). Data are mean ± s.d. of three replicates. Source data

HeLa cells [2] = assay: MTT viability with B12Br12^2− or R8; parameters: dose or concentration left out as unconfirmed; details: 3 h in HKR + 24 h medium, mean of five measurements
Procedure: (§1) The incubation mixtures were replaced with DMEM + 10% FBS + 0.5 mg ml^–1 MTT. For the viability assays in the presence of B12Br12^2− or R8, HeLa, GT1-7, ARPE-19 and A549 cells were seeded the day before in 96-well plates at 6,000 cells per well. Cells were incubated with B12Br12^2− or R8 dissolved in HKR buffer for 3 h and, thereafter, incubated for 24 h with complete medium before incubating with complete medium and 0.5 mg ml^−1 MTT. For viability studies in the presence of MMAF, HeLa cells were incubated with MMAF and B12Br12^2− diluted in DMEM (without serum or antibiotics) for 3 h. Cells were washed with 0.1 mg ml^−1 heparin and further incubated for 21 h in complete medium and 2 h in complete medium containing 0.5 mg ml^−1 MTT. For all types of assays, after 2 h of incubation, the medium was carefully removed, and formazan crystals dissolved by addition of DMSO. The absorbance at 570 nm was measured with a plate reader (Tecan Infinite F200Pro) and the data normalized to the value of untreated cells (100% viability). Data were analysed with R (v. 4.0.3)[54].
(§2) Cells were incubated with 7 µM phalloidin-TRITC (red) in the absence (left) and presence of 50 µM ^AcR8 (middle) or 50 µM of B12Br12^2− cluster (right) in HKR buffer for 3 h, subsequently stained with Hoechst (blue), washed with DMEM without phenol red, and imaged by confocal fluorescence microscopy; bright-field images in insets. Micrographs from each cell line were processed independently, experiments were performed twice. e, MTT viability assay of the corresponding cell lines (HeLa, GT1-7, ARPE-19 and A549, from left to right) at different concentrations (0, 25, 75, 250, and 500 µM) of B12Br12^2− (black) or ^AcR8 (red); data are mean ± s.d. of five measurements. f, Confocal images of HeLa cells after incubation with 500 nM phalloidin-TRITC and different concentrations B12Br12^2−; the images correspond to those of Fig. 4 in the main text, but are shown with increased brightness to facilitate observation of the actin filaments. Representative images of two biological replicates. All scale bars are […], except for panel f (50 µm). Source data

[3] = tested on: adenocarcinoma human alveolar basal epithelial cells A549; assay: MTT viability with B12Br12^2− or R8; parameters: dose or concentration left out as unconfirmed; details: 3 h in HKR + 24 h medium, mean of five measurements
Procedure: as §1, §2

[4] = tested on: Escherichia coli Top10 strain; assay: Kanamycin A delivery in E. coli (OD570 growth); format: cell-based; details: incubation with the cluster alone, up to 1 mM
Procedure: As a proof-of-principle, we investigated its potential to reduce the minimum inhibitory concentration of kanamycin A, an aminoglycoside antibiotic. Aminoglycosides function by binding to the bacterial 30S ribosomal subunit; consequently, effective passage through the cell wall and plasma membrane is essential for aminoglycosides to reach their intracellular targets. […]
A preculture of E. coli Top10 cells was incubated overnight in LB medium with 50 µg ml^−1 streptomycin sulfate. […] After 18 h, the optical density at 570 nm, as an indicator of bacterial growth, was measured with a Tecan Infinite F200Pro microplate reader. Data were normalized for each concentration of B12Br12^2− relative to the control condition without antibiotic.
Solid points indicate mean ± s.d. of three technical replicates. […] Cross-bars indicate mean ± s.d. of three independent experiments (two with technical triplicates, one with technical duplicates); values obtained in each experiment are represented by different shapes. c, Viability of HeLa cells after incubation with different doses of MMAF in the presence of 0, 5 and 10 μM B12Br12^2−. Solid points indicate mean ± s.d. of three technical replicates. d, Corresponding IC50 values of MMAF. […] Source data

## B12Br12^2−
HeLa cells [1]; 10 uM cluster, Tm-R8 0 uM
  mean_of_medians: 56.9232
HeLa cells [1]; 10 uM cluster, Tm-R8 1 uM
  mean_of_medians: 648.983
HeLa cells [1]; 50 uM cluster, Tm-R8 0 uM
  mean_of_medians: 50.2824
HeLa cells [1]; 50 uM cluster, Tm-R8 1 uM
  mean_of_medians: 905.363
HeLa cells [1]; HeLa, 1 µM TAMRA-R8, 10 or 50 µM cluster, 1 h
  Enhancement of total TAMRA-R8 uptake (flow cytometry): most active carrier
HeLa cells [2]; 25 as printed
  mean_viability: 104.374%
HeLa cells [2]; 75 as printed
  mean_viability: 100.045%
[3]; 25 as printed
  mean_viability: 106.289%
[3]; 75 as printed
  mean_viability: 109.955%
[4]
  Bacterial survival, cluster alone: did not affect bacterial survival
